Here are results for four molecules from publication PMC4401096 (Scientific Reports, 2015).

Read-outs that look alike come from different tables or passages of the source.

The nature of data set [1]: Species comparison of DACB glucuronidation in animal liver microsomes. Type of data set: in vitro ADME. On the technique in general: Liver microsomes are a subcellular fraction often used to study metabolism.
The conditions of data set [2]: HLMs.
Procedure: (§1) The standard incubation system for the UGT reaction included HLMs (5 mg of protein/mL), UDPGA (40 mM), Tris-HCl buffer (pH 7.4), MgCl2 (50 mM), 25 μg/mL alamethicin, and substrates in a final volume of 200 μL. The volume of organic solvent was less than 1%. After 60 min of incubation at 37°C, the reaction was terminated by adding 0.1 mL of methanol. The sample was then centrifuged at 20,000 g for 20 minutes to obtain the supernatant for LC-UV-ESI analysis.
(§2) To ensure that less than 10% of the substrate was metabolized in all incubations, different incubation times and protein concentration conditions were selected with 60 min of incubation and 0.15 to 0.75 mg of protein, to confirm the linear interval of metabolite turnover rates. The kinetic models used for analysis were Michaelis–Menten kinetics (eq. 1), biphasic kinetics (eq. 2) and inhibition kinetics (eq. 3)[32]. [drawing 1] [drawing 2] […] Ksi is the constant describing the substrate inhibition interaction. All of the incubations were performed in three independent experiments in duplicate. Kinetic constants were obtained using Origin 7.5 (OriginLab Corp., Northampton, MA) and were reported as the mean ± standard error (S.E.) of the parameter estimate.
The conditions of data set [3]: M-2 (16-O-glucuronidation), HIMs.
Procedure: as §1, §2
The conditions of data set [4]: RLMs.
Procedure: as §1, §2
The conditions of data set [5]: MLMs.
Procedure: as §1, §2
For data set [6] the following is noted: DLMs.
Procedure: as §1, §2
For data set [7] the following is noted: 3-O-Glucuronide (M-1), TLMs.
Procedure: as §1, §2
The conditions of data set [8]: 16-O-Glucuronide (M-2), PLMs.
A further data set addresses T1, UGT1A4 (Homo sapiens, UniProt P22310).
T1 sequence (P22310 29-534): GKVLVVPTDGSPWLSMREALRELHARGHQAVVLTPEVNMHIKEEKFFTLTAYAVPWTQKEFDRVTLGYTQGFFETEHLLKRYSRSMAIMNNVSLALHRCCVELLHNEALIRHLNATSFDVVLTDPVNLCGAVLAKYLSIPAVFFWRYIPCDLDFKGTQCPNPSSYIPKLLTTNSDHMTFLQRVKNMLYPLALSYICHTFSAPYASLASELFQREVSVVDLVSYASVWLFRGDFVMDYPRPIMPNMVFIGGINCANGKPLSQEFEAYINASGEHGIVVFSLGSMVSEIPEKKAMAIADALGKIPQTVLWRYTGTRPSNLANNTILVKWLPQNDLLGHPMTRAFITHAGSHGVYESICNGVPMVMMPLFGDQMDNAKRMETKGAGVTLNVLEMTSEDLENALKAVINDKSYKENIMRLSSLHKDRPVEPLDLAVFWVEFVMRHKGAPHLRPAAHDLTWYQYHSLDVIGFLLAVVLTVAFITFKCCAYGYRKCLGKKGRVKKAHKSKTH

For another data set, the target named is T2, UGT1A3 (Homo sapiens, UniProt P35503).
T2 sequence (P35503 29-534): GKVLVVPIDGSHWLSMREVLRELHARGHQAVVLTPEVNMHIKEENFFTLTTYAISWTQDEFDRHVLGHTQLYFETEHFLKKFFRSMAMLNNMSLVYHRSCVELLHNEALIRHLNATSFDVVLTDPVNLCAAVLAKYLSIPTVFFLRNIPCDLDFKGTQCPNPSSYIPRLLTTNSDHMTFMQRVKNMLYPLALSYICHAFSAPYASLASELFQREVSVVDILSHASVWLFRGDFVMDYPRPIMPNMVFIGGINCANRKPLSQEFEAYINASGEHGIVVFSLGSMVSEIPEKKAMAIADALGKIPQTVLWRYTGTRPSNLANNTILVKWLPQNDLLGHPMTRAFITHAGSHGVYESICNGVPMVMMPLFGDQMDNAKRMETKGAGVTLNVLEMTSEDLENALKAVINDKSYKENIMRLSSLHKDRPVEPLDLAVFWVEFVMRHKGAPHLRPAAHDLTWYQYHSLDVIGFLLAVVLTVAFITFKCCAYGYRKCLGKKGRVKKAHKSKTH

Setting [9] is: animal species liver microsomes.
The mark [10] stands for this setting: liver microsomes of various species.

Procedure for UGT1A3: (§3) All of the incubations were performed for 60 min using HLMs with a concentration of 0.3 mg of protein/mL, 0.05 mg of protein/mL for UGT1A3 and 0.25 mg of protein/mL for UGT1A4. Similarly, for the UGT1A4 isoform, hecogenin (1–80 μM) was used as a specific inhibitor to determine the differences of inhibition effects between HLMs and UGT1A4.
Procedure for UGT1A4: as §3

For orientation: Vmax means the rate approached at saturating substrate. As a reminder, the Km is the substrate concentration at which the rate is half of its maximum. Consider `C[C@]12CC[C@H](O)C[C@H]1CC[C@@H]1[C@@H]2CC[C@]2(C)[C@@H](c3ccc(=O)oc3)[C@@H](O)[C@H]3O[C@]132` [DACB, desacetylcinobufagin], for which the “order of CLint activities of UGT1A3, M-2 formation” value in data set [1] (setting [9]) is “MLM > RLM > PLM > DLM”. Moreover, the “order of UGT1A4 activities by CLint values, M-1 formation” value in data set [1] (setting [9]) was “Rabbit > Monkey > Mouse > Dog > Pig”. The “occurrence of 3-O-glucuronidation in species” value in [1] (setting [10]) is “occurs in DLMs, MLMs, MsLMs, RLMs and TLMs”. In [1] (setting [10]), the “occurrence of 16-O-glucuronidation in species” value is recorded as “can occur in all species except RtLMs”. Also, the Vmax in data set [2] (M-1 (3-O-glucuronidation)) was 0.061 ± 0.002 nmol/min/mg; in data set [2] (M-2 (16-O-glucuronidation)), 0.074 ± 0.004 nmol/min/mg; in data set [3], 0.007 ± 0.002 nmol/min/mg; in [4] (3-O-Glucuronide (M-1)), 0.107 ± 0.002 nmol/min/mg; in data set [4] (16-O-Glucuronide (M-2)) it was 0.018 ± 0.001 nmol/min/mg; in data set [5] (3-O-Glucuronide (M-1)), 0.174 ± 0.008 nmol/min/mg. The Vmax in [5] (16-O-Glucuronide (M-2)) was found to be 0.288 ± 0.002 nmol/min/mg; in data set [6] (3-O-Glucuronide (M-1), biphasic kinetics, first line) it was 0.005 ± 0.001 nmol/min/mg; in [6] (3-O-Glucuronide (M-1), biphasic kinetics, second line), 0.009 ± 0.001 nmol/min/mg; in data set [6] (16-O-Glucuronide (M-2)), 0.111 ± 0.010 nmol/min/mg; in [7], 0.106 ± 0.002 nmol/min/mg; in [8], 0.032 ± 0.001 nmol/min/mg. Moreover, the Km in data set [7] was 63.6 ± 5.33 µM.
For `CN1CCN(CCCN2c3ccccc3Sc3ccc(C(F)(F)F)cc32)CC1` [TFP, trifluoperazine], on UGT1A4, the “inhibition of the 3-O-glucuronidation of DACB” value is “significantly inhibit”.
As for `CC1(C)[C@@H](O)CC[C@]2(C)[C@H]3C(=O)C=C4[C@@H]5C[C@@](C)(C(=O)O)CC[C@]5(C)CC[C@@]4(C)[C@]3(C)CC[C@@H]12` [glycyrrhetinic acid], at UGT1A3, the “inhibition of the formation of M-2 (16-O-glucuronate)” value is listed as “significantly inhibited”. On UGT1A3 (glycyrrhetinic acid 0–60 μM, UGT1A3 and HLMs), the “IC50 values for M-2 formation, UGT1A3 compared with HLMs” value is “equal”.
Turning to hecogenin, the “inhibition of the 3-O-glucuronidation of DACB” value against UGT1A4 is reported as “significantly inhibit”. For the same molecule, the “IC50 values for M-1 formation, UGT1A4 compared with HLMs” value at UGT1A4 (hecogenin 1–80 μM, UGT1A4 and HLMs) is reported as “similar”.
